According to PubChem BioAssay AID248 (DTP/NCI, 2004):
Inconclusive results and toxic doses are left out. Rule as the data show it: active = T/C of 150% or more; inactive = T/C below 125%.

System: L1210 leukemia ip in BDF1 mice, survival T/C
Assay: NCI In Vivo Anticancer Drug Screen. Data for tumor model L1210 Leukemia (intraperitoneal) in B6D2F1 (BDF1) mice
Details: endpoint: mean survival time, higher = longer survival
Procedure, shortened: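 Tumor cells were implanted, animals were treated, and survival was followed. The result divides the treated measurement by the vehicle-control measurement.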

[1] = dose: 100.0 mg/kg/injection, schedule: Q01DX001 (ip), vehicle: saline
[2] = dose: 100.0 mg/kg/injection, schedule: Q04DX003 (ip), vehicle: saline
[3] = dose: 100.0 mg/kg/injection, schedule: Q01DX009 (ip), vehicle: Klucel (hydroxypropylcellulose) (HPC)
[4] = dose: 100.0 mg/kg/injection, schedule: Q04DX003 (ip), vehicle: Klucel (hydroxypropylcellulose) (HPC)
[5] = dose: 200.0 mg/kg/injection, schedule: Q01DX009 (ip), vehicle: Klucel (hydroxypropylcellulose) (HPC)
[6] = dose: 200.0 mg/kg/injection, schedule: Q04DX003 (ip), vehicle: Klucel (hydroxypropylcellulose) (HPC)
[7] = dose: 400.0 mg/kg/injection, schedule: Q04DX003 (ip), vehicle: Klucel (hydroxypropylcellulose) (HPC)
[8] = dose: 400.0 mg/kg/injection, schedule: Q01DX001 (ip), vehicle: carboxymethylcellulose (CMC)
[9] = dose: 100.0 mg/kg/injection, schedule: Q01DX001 (ip), vehicle: saline with Tween-80
[10] = dose: 200.0 mg/kg/injection, schedule: Q01DX001 (ip), vehicle: saline with Tween-80
[11] = dose: 400.0 mg/kg/injection, schedule: Q01DX001 (ip), vehicle: saline with Tween-80

Measured: T/C

O=C(CCl)Nc1ccc(S(=O)(=O)c2ccc([N+](=O)[O-])cc2)cc1
inactive: dose: 30.0 mg/kg/injection, schedule: Q01DX001 (ip), vehicle: saline 94 % of control | dose: 75.0 mg/kg/injection, schedule: Q01DX009 (ip), vehicle: saline 95 % of control | dose: 75.0 mg/kg/injection, schedule: Q04DX003 (ip), vehicle: saline 92 % of control | [1] 91 % of control | dose: 150.0 mg/kg/injection, schedule: Q01DX009 (ip), vehicle: saline 96 % of control | dose: 150.0 mg/kg/injection, schedule: Q04DX003 (ip), vehicle: saline 91 % of control | dose: 300.0 mg/kg/injection, schedule: Q01DX001 (ip), vehicle: saline 94 % of control | dose: 300.0 mg/kg/injection, schedule: Q01DX009 (ip), vehicle: saline 101 % of control | dose: 300.0 mg/kg/injection, schedule: Q04DX003 (ip), vehicle: saline 94 % of control

NCCCc1nc(N)nc(N)c1-c1ccc(Cl)cc1
inactive: dose: 25.0 mg/kg/injection, schedule: Q04DX003 (ip), vehicle: saline 104 % of control | dose: 50.0 mg/kg/injection, schedule: Q04DX003 (ip), vehicle: saline 110 % of control | [2] 103 % of control

Cc1cccc(C2NC(=S)N3C(c4cccc(C)c4)NC(=S)N23)c1 (centres undefined)
inactive: dose: 100.0 mg/kg/injection, schedule: Q01DX009 (ip), vehicle: gum acacia 100 % of control | dose: 100.0 mg/kg/injection, schedule: Q04DX003 (ip), vehicle: gum acacia 88 % of control | dose: 200.0 mg/kg/injection, schedule: Q01DX009 (ip), vehicle: gum acacia 100 % of control | dose: 200.0 mg/kg/injection, schedule: Q04DX003 (ip), vehicle: gum acacia 88 % of control | dose: 400.0 mg/kg/injection, schedule: Q01DX009 (ip), vehicle: gum acacia 91 % of control | dose: 400.0 mg/kg/injection, schedule: Q04DX003 (ip), vehicle: gum acacia 87 % of control

O=[N+]([O-])c1cc(NS(=O)(=O)c2ccccc2)ccc1NS(=O)(=O)c1ccccc1
inactive: dose: 50.0 mg/kg/injection, schedule: Q01DX009 (ip), vehicle: Klucel (hydroxypropylcellulose) (HPC) 90 % of control | [3] 90 % of control | [4] 111 % of control | [5] 93 % of control | [6] 97 % of control | [7] 94 % of control

C=C(C)CCCC(C)C/C=N/NC(=O)CNC(=O)C=[N+]=[N-] (centres undefined) (tested in a mixture with another compound)
inactive: dose: 50.0 mg/kg/injection, schedule: Q01DX001 (ip), vehicle: water 100 % of control | dose: 100.0 mg/kg/injection, schedule: Q01DX001 (ip), vehicle: water 93 % of control | dose: 200.0 mg/kg/injection, schedule: Q01DX001 (ip), vehicle: water 91 % of control | dose: 400.0 mg/kg/injection, schedule: Q01DX001 (ip), vehicle: water 100 % of control

O=C(COc1ccccc1)Nc1cccc(C(=O)O)c1
inactive: [4] 104 % of control | [6] 93 % of control | [7] 109 % of control

C/C(=C1\C(=O)Nc2ccccc21)c1ccco1
inactive: dose: 100.0 mg/kg/injection, schedule: Q04DX003 (ip), vehicle: saline with Tween-80 101 % of control | dose: 200.0 mg/kg/injection, schedule: Q04DX003 (ip), vehicle: saline with Tween-80 104 % of control | dose: 400.0 mg/kg/injection, schedule: Q04DX003 (ip), vehicle: saline with Tween-80 104 % of control

NC(=S)N/N=C/c1ccc(O)c(C(=O)O)c1
inactive: dose: 15.0 mg/kg/injection, schedule: Q01DX Z (ip), vehicle: methylcellulose (MC) 97 % of control | dose: 30.0 mg/kg/injection, schedule: Q01DX Z (ip), vehicle: methylcellulose (MC) 95 % of control | dose: 60.0 mg/kg/injection, schedule: Q01DX Z (ip), vehicle: methylcellulose (MC) 95 % of control | dose: 120.0 mg/kg/injection, schedule: Q01DX Z (ip), vehicle: methylcellulose (MC) 97 % of control | dose: 250.0 mg/kg/injection, schedule: Q01DX Z (ip), vehicle: methylcellulose (MC) 91 % of control | dose: 375.0 mg/kg/injection, schedule: Q01DX Z (ip), vehicle: methylcellulose (MC) 89 % of control

CO[Si](C)(C)C
inactive: [1] 98 % of control | dose: 200.0 mg/kg/injection, schedule: Q01DX001 (ip), vehicle: saline 98 % of control | dose: 400.0 mg/kg/injection, schedule: Q01DX001 (ip), vehicle: saline 100 % of control

COC(=O)CCS
inactive: dose: 10.0 mg/kg/injection, schedule: Q01DX001 (ip), vehicle: saline 101 % of control | dose: 20.0 mg/kg/injection, schedule: Q01DX001 (ip), vehicle: saline 101 % of control | dose: 40.0 mg/kg/injection, schedule: Q01DX001 (ip), vehicle: saline 96 % of control

O=C(NC(Cc1ccccc1)C(=O)N1CCCCC1)c1ccccc1 (centres undefined)
inactive: dose: 100.0 mg/kg/injection, schedule: Q01DX001 (ip), vehicle: carboxymethylcellulose (CMC) 101 % of control | dose: 200.0 mg/kg/injection, schedule: Q01DX001 (ip), vehicle: carboxymethylcellulose (CMC) 92 % of control | [8] 90 % of control

CC1(C(=O)O)C2C3C=CC(C3)C21 (centres undefined)
inactive: [9] 97 % of control | [10] 93 % of control | [11] 92 % of control

CSc1ccc(C(=O)CCl)c(C)c1
inactive: dose: 50.0 mg/kg/injection, schedule: Q01DX001 (ip), vehicle: carboxymethylcellulose (CMC) 94 % of control

O=C1c2cc(Cl)ccc2-c2c1cc(Cl)cc2[N+](=O)[O-]
inactive: [4] 100 % of control | [6] 104 % of control | [7] 98 % of control

NC(CC1CCCCC1)C(=O)O (centres undefined)
inactive: dose: 100.0 mg/kg/injection, schedule: Q04DX002 (ip), vehicle: Klucel (hydroxypropylcellulose) (HPC) 91 % of control | dose: 200.0 mg/kg/injection, schedule: Q04DX002 (ip), vehicle: Klucel (hydroxypropylcellulose) (HPC) 88 % of control | dose: 400.0 mg/kg/injection, schedule: Q04DX002 (ip), vehicle: Klucel (hydroxypropylcellulose) (HPC) 91 % of control

N#Cc1ccc[nH]1
inactive: dose: 100.0 mg/kg/injection, schedule: Q01DX001 (sc), vehicle: carboxymethylcellulose (CMC) 121 % of control | dose: 177.0 mg/kg/injection, schedule: Q01DX001 (ip), vehicle: carboxymethylcellulose (CMC) 108 % of control | dose: 200.0 mg/kg/injection, schedule: Q01DX001 (sc), vehicle: carboxymethylcellulose (CMC) 110 % of control | dose: 266.0 mg/kg/injection, schedule: Q01DX001 (ip), vehicle: carboxymethylcellulose (CMC) 96 % of control | [8] 102 % of control

O=C(NC1(C(=O)O)CCCC1)C(F)(F)F
inactive: [2] 98 % of control | dose: 200.0 mg/kg/injection, schedule: Q04DX003 (ip), vehicle: saline 118 % of control | dose: 400.0 mg/kg/injection, schedule: Q04DX003 (ip), vehicle: saline 111 % of control

Cc1cc(C)c(NC(=O)NC(C)C)c(C)c1
inactive: [3] 104 % of control | [4] 98 % of control | [5] 101 % of control | [6] 105 % of control | dose: 400.0 mg/kg/injection, schedule: Q01DX009 (ip), vehicle: Klucel (hydroxypropylcellulose) (HPC) 91 % of control | [7] 91 % of control

CCOC(=O)C1CCC(=O)N1C(=O)c1cc([N+](=O)[O-])cc([N+](=O)[O-])c1 (centres undefined)
inactive: [4] 97 % of control | [6] 92 % of control | [7] 94 % of control

c1ccc(CCCCCCCCCCc2ccccc2)cc1
inactive: [9] 91 % of control | [10] 95 % of control | [11] 98 % of control
